Assay results from PMC12481576, “Barbituric Acid Derivatives as Covalent Inhibitors of Leishmania braziliensis Dihydroorotate Dehydrogenase” (Journal of Medicinal Chemistry, 2025).
Several values for one entry are separate records, joined by “and”; a condition that tells them apart may be missing. Identical values can stand only once. Like-named read-outs stand apart in the source and are kept apart here.

How the values were obtained:
[1] = molecular target: LbDHODH (Leishmania braziliensis, UniProt E9AI53); test: biochemical; conditions: for IC50: LbDHODH
In short: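 Covalent inactivation constant kinact/KI came from linear fitting of early kobs values against inhibitor concentration. Activity followed by A610 (DCIP, DHO substrate) every 3 s over 60 s in Tris pH 8.15/KCl/Triton X-100 buffer, in triplicate; single-point 100 μM screen run at 0 h and after 4-h preincubation.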

[2] = molecular target: T1, HsDHODH (Homo sapiens, UniProt Q02127); test: Selectivity assay: HsDHODH single-dose inhibition (DCIP reduction); format: biochemical
T1 construct: made in house
In short: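 Single-dose format, run in triplicate: His-purified HsDHODH (20 nM final) started by adding reaction buffer, absorbance at 610 nm (DCIP) recorded for 60 s at 3-s intervals. Initial rates converted to percent of no-compound control activity.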

[3] = Cell viability / cytotoxicity assay (PrestoBlue, 72 h); format: cell-based; conditions: human; THP-1 cell line, 72 h, max 200 μM; read-out: CC50
In short: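 Viability was measured with PrestoBlue fluorescence (560/590 nm, 2 h) after 72 h compound exposure at 37 °C. Test concentrations descended from 200 μM. The THP-1 monocytes had first been differentiated with 150 ng/mL phorbol myristate acetate for 48 h, then rested 24 h.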

[4] = in vitro
Description: Solutions of the compounds were prepared in duplicate by diluting the stock solutions (10 mM) in phosphate buffered saline (PBS) pH 7.4 at a final concentration of 10 μM (5% DMSO). The solutions diluted in PBS pH 7.4 were then added to the donor portion of the plate (300 μL/well), while in the acceptor portion PBS pH 7.4 (200 μL/well) was added. The two portions of the plate were then coupled, and the system was incubated for 6 h at room temperature. Samples of the initial donor solution (T0) were collected at the beginning (T0) and stored at 5 °C. The final concentrations of compounds in the donor, acceptor and T0 wells were quantified by LC-MS/MS.

[5] = in vitro; conditions: microsomes; for microsomal CLint at 1 μM / remaining at 5 min, 1 μM: male, CD1, mouse; for remaining at 5 min, 1 μM / remaining at 10 min, 1 µM / remaining at 20 min, 1 µM / remaining at 0.5 h, 1 µM / remaining at 1 h, 1 µM: pH 7.4, % Remaining; for remaining at 5 min, 1 μM: T=5 min; for remaining at 10 min, 1 µM / remaining at 20 min, 1 µM / remaining at 0.5 h, 1 µM / remaining at 1 h, 1 µM: mouse; for remaining at 10 min, 1 µM: T=10 min; for remaining at 20 min, 1 µM: T=20 min; for remaining at 0.5 h, 1 µM: T=30 min, 30 min; for remaining at 1 h, 1 µM: T=60 min, 60 min
[6] = Mouse liver microsome stability in the absence of cofactors (NCF); conditions: mouse, microsomes, pH 7.4, % Remaining, T=60 NCF, 1 µM, 60 min, no cofactor (NCF)
[7] = 0 h, pH 8.15, read-out: LbDHODH Activity±SD (%)
[8] = 4 h, pH 8.15, read-out: LbDHODH Activity±SD (%)
[9] = read-out: Single dose (0h) % activity
[10] = read-out: Single dose (4h) % activity
[11] = average of n=2, 10µM, PBS pH 7.4/7.4, 6h at room temperature
[12] = n=1, mouse liver microsomes, 1 µM, n=1
[13] = n=2, mouse liver microsomes, 1 µM, n=2

Sequence of LbDHODH (E9AI53 entry or part of it): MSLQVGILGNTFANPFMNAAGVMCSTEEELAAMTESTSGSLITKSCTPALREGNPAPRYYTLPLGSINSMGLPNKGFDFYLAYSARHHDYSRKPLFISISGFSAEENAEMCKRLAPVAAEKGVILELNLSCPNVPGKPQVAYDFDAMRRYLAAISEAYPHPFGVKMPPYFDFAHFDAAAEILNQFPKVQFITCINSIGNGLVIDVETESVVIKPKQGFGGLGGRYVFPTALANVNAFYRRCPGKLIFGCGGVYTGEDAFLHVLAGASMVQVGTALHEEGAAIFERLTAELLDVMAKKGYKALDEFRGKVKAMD
T1 sequence (Q02127 whole entry): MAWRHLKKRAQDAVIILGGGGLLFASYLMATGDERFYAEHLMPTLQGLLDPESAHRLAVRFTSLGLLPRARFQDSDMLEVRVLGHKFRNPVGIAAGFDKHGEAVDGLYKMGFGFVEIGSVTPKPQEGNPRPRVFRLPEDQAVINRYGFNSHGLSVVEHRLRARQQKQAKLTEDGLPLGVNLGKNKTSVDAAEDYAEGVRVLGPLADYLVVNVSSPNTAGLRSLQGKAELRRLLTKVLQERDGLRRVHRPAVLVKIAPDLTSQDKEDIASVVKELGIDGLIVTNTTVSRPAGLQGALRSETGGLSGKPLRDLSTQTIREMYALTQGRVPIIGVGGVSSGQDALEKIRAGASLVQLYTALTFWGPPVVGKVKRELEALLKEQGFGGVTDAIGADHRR

Compound: COc1cc(C=C2C(=O)NC(=O)NC2=O)ccc1O [2c, 5-(4-Hydroxy-3-methoxybenzylidene)pyrimidine-2,4,6(1H,3H,5H)-trione]
- activity at 0.390625 µM [1, 7]: 96 ± 9%
- activity at 0.78125 µM [1, 7]: 92 ± 9%
- activity at 1.5625 µM [1, 7]: 82 ± 23%
- activity at 3.125 µM [1, 7]: 77 ± 7%
- activity at 6.25 µM [1, 7]: 46 ± 4%
- activity at 12.5 µM [1, 7]: 36 ± 8%
- activity at 25 µM [1, 7]: 22 ± 2%
- activity at 50 µM [1, 7]: 13 ± 1%
- activity at 100 µM [1, 7]: 7 ± 4%
- activity at 200 µM [1, 7]: 5 ± 0.4%
- activity at 400 µM [1, 7]: 6 ± 1%
- activity at 0.390625 µM [1, 8]: 102 ± 10%
- activity at 0.78125 µM [1, 8]: 97 ± 9%
- activity at 1.5625 µM [1, 8]: 96 ± 12%
- activity at 3.125 µM [1, 8]: 90 ± 6%
- activity at 6.25 µM [1, 8]: 86 ± 7%
- activity at 12.5 µM [1, 8]: 83 ± 8%
- activity at 25 µM [1, 8]: 72 ± 5%
- activity at 50 µM [1, 8]: 62 ± 8%
- activity at 100 µM [1, 8]: 52 ± 6%
- activity at 200 µM [1, 8]: 32 ± 2%
- activity at 400 µM [1, 8]: 23 ± 3%
- IC50 ([1]; IC50 0 h, without preincubation): 7 ± 1 µM
- IC50 ([1]; IC50 4 h, 4-h preincubation): 89 ± 4 µM
- activity at 100 µM [1, 9]: 7 ± 3%
- activity at 100 µM [1, 10]: 21 ± 5%
- activity at 100 µM [2, 9]: 80 ± 9%
- activity at 100 µM [2, 10]: 83 ± 8%
- CC50 at 72 h [3]: > 200 µM
- recovery at 6 h, 10 µM ([4]; PAMPA, pH 7.4, % Recovery n=1, replicate n=1, 10µM, PBS pH 7.4/7.4, 6h at room temperature): 86.6%
- recovery at 6 h, 10 µM ([4]; PAMPA, pH 7.4, % Recovery n=2, replicate n=2, 10µM, PBS pH 7.4/7.4, 6h at room temperature): 96%
- recovery at 6 h, 10 µM ([4]; PAMPA, pH 7.4, Avg % Recovery, average of n=2, 10µM, PBS pH 7.4/7.4, 6h at room temperature): 91.3%
- Papp ([4]; PAMPA, pH 7.4, permeability, PBS pH 7.4, 10 μM, 6 h): 8.4 nm/s
- Avg Log Pe (cm/sec) [4, 11]: -6.08 cm/sec and -6.1 cm/sec
- Avg Pe [4, 11]: 8.43 nm/s and 8.4 nm/s
- LogPe (cm/sec) n1 ([4]; replicate n1, calculation section, 10µM, PBS pH 7.4/7.4, 6h): -6.16 cm/sec
- LogPe (cm/sec) n2 ([4]; replicate n2, calculation section, 10µM, PBS pH 7.4/7.4, 6h): -6.00 cm/sec
- Pe (nm/sec) n=1 ([4]; replicate n=1, 10µM (5% DMSO), PBS pH 7.4/7.4, 6h at room temperature, LC-MS/MS): 6.94 nm/s and 6.9 nm/s
- % Recovery n=1 ([4]; replicate n=1, 10µM, PBS pH 7.4/7.4, 6h at room temperature): 86.6%
- Pe (nm/sec) n=2 ([4]; replicate n=2, 10µM (5% DMSO), PBS pH 7.4/7.4, 6h at room temperature, LC-MS/MS): 9.91 nm/s and 9.9 nm/s
- % Recovery n=2 ([4]; replicate n=2, 10µM, PBS pH 7.4/7.4, 6h at room temperature): 96.0%
- Calculated T-half (min), Average (mouse liver microsomes (CD1 male), 0.4 mg/ml protein, test conc 1 µM, average of n=1 and n=2): 6.0 min
- Calculated T-half (min), n=1 (mouse liver microsomes (CD1 male), 0.4 mg/ml protein, test conc 1 µM, replicate n=1): 6.12 min and 6.1 min
- Calculated T-half (min), n=2 (mouse liver microsomes (CD1 male), 0.4 mg/ml protein, test conc 1 µM, replicate n=2): 5.82 min and 5.8 min
- Calculated CLint, app (µl/min/mg), n=1 (mouse liver microsomes, 0.4 mg/ml protein, 1 µM, replicate n=1): 283.1 µL/min/mg
- Calculated CLint, app (µl/min/mg), n=2 (mouse liver microsomes, 0.4 mg/ml protein, 1 µM, replicate n=2): 297.8 µL/min/mg
- Modified T-half (min), Average (mouse liver microsomes, 0.4 mg/ml, 1 µM, average, limited to T Half range 3.00 - […]): 6.0 min
- Remarks (mouse microsomal stability study) (mouse liver microsomes, 0.4 mg/ml, 1 µM, NCF = no cofactor control): Low NCF
- mouse liver microsomes T-half (mouse liver microsomes, NADPH, 1 μM): 6.0 min and 6 min
- microsomal CLint at 1 μM ([5]; pH 7.4): 283 µL/min/mg
- remaining at 5 min, 1 μM [5, 12]: 38.7%
- remaining at 5 min, 1 μM [5, 13]: 50.5%
- microsomal CLint at 1 μM ([5]; pH 7.4, Calculated CLint, app (µl/min/mg), Average, mouse liver microsomes, 0.4 mg/ml protein, 1 µM): 290 µL/min/mg
- microsomal CLint at 1 μM ([5]; pH 7.4, Calculated CLint, app (µl/min/mg), n=1, mouse liver microsomes, 0.4 mg/ml protein, 1 µM, replicate n=1): 283 µL/min/mg
- microsomal CLint at 1 μM ([5]; pH 7.4, Calculated CLint, app (µl/min/mg), n=2, mouse liver microsomes, 0.4 mg/ml protein, 1 µM, replicate n=2): 298 µL/min/mg
- microsomal CLint at 1 μM ([5]; pH 7.4, mouse liver microsomes CLint, app, mouse liver microsomes, NADPH, 1 μM): 290 µL/min/mg
- remaining at 10 min, 1 µM [5, 12]: 17.1%
- remaining at 10 min, 1 µM [5, 13]: 17.8%
- remaining at 20 min, 1 µM [5, 12]: 9.8%
- remaining at 20 min, 1 µM [5, 13]: 9.5%
- remaining at 0.5 h, 1 µM [5, 12]: 6.6%
- remaining at 0.5 h, 1 µM [5, 13]: 9.5%
- remaining at 1 h, 1 µM [5, 12]: 12.9%
- remaining at 1 h, 1 µM [5, 13]: 13.3%
- remaining at 1 h, 1 µM ([6]; n=1, mouse liver microsomes, n=1): 52.4%
- remaining at 1 h, 1 µM ([6]; n=2, mouse liver microsomes, n=2): 51.5%
